From the supplement of paper PMC5662764
± gives the standard deviation of the averaged measurements.

Experiments:
Assay in all cases: normalised growth rate inhibition (GR value) relative to DMSO control (GR (1 = untreated growth, 0 = cytostasis, <0 = cytotoxic)); higher = less growth inhibition
Conditions in all cases: 72 h
BT20 = test system: BT20
In short: (§1)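 Normalised growth rate inhibition was worked out from viable-cell counts relative to DMSO wells on the same plate and a starting-day plate, then averaged over technical plate replicates. The six breast cell lines were seeded in 384-well plates and treated 24 h later with drugs at 0.04–10 µM for 72 h. Counting was done in Columbus on Operetta images after Hoechst 33342 and Fixable Far Red Dead Cell Stain staining and 3% formaldehyde fixation.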

MDAMB231 = test system: MDAMB231
In short: as §1

HS578T = test system: HS578T
In short: as §1

SKBR3 = test system: SKBR3
In short: as §1

MCF10A = test system: MCF10A
In short: as §1

MCF7 = test system: MCF7
In short: as §1

SMILES: CC(=O)Nc1cccc(-n2c(=O)n(C3CC3)c(=O)c3c(Nc4ccc(I)cc4F)n(C)c(=O)c(C)c32)c1 [trametinib]
- normalised growth rate inhibition (BT20; 0.04 µM): 0.71 ± 0.046
- normalised growth rate inhibition (BT20; 0.12 µM): 0.78 ± 0.049
- normalised growth rate inhibition (BT20; 0.37 µM): 0.743 ± 0.047
- normalised growth rate inhibition (BT20; 1.11 µM): 0.717 ± 0.053
- normalised growth rate inhibition (BT20; 3.33 µM): 0.683 ± 0.019
- normalised growth rate inhibition (BT20; 10 µM): 0.762 ± 0.066
- normalised growth rate inhibition (MDAMB231; 0.04 µM): 0.0906 ± 0.041
- normalised growth rate inhibition (MDAMB231; 0.12 µM): 0.129 ± 0.1
- normalised growth rate inhibition (MDAMB231; 0.37 µM): 0.117 ± 0.072
- normalised growth rate inhibition (MDAMB231; 1.11 µM): 0.11 ± 0.072
- normalised growth rate inhibition (MDAMB231; 3.33 µM): 0.11 ± 0.082
- normalised growth rate inhibition (MDAMB231; 10 µM): 0.128 ± 0.11
- normalised growth rate inhibition (HS578T; 0.04 µM): 0.261 ± 0.05
- normalised growth rate inhibition (HS578T; 0.12 µM): 0.203 ± 0.071
- normalised growth rate inhibition (HS578T; 0.37 µM): 0.194 ± 0.091
- normalised growth rate inhibition (HS578T; 1.11 µM): 0.186 ± 0.088
- normalised growth rate inhibition (HS578T; 3.33 µM): 0.179 ± 0.075
- normalised growth rate inhibition (HS578T; 10 µM): 0.198 ± 0.091
- normalised growth rate inhibition (SKBR3; 0.04 µM): 0.503 ± 0.17
- normalised growth rate inhibition (SKBR3; 0.12 µM): 0.607 ± 0.08
- normalised growth rate inhibition (SKBR3; 0.37 µM): 0.565 ± 0.14
- normalised growth rate inhibition (SKBR3; 1.11 µM): 0.613 ± 0.11
- normalised growth rate inhibition (SKBR3; 3.33 µM): 0.624 ± 0.12
- normalised growth rate inhibition (SKBR3; 10 µM): 0.631 ± 0.16
- normalised growth rate inhibition (MCF10A; 0.04 µM): 0.152 ± 0.076
- normalised growth rate inhibition (MCF10A; 0.12 µM): 0.178 ± 0.068
- normalised growth rate inhibition (MCF10A; 0.37 µM): 0.182 ± 0.083
- normalised growth rate inhibition (MCF10A; 1.11 µM): 0.202 ± 0.071
- normalised growth rate inhibition (MCF10A; 3.33 µM): 0.206 ± 0.058
- normalised growth rate inhibition (MCF10A; 10 µM): 0.231 ± 0.058
- normalised growth rate inhibition (MCF7; 0.04 µM): 0.364 ± 0.029
- normalised growth rate inhibition (MCF7; 0.12 µM): 0.365 ± 0.027
- normalised growth rate inhibition (MCF7; 0.37 µM): 0.36 ± 0.011
- normalised growth rate inhibition (MCF7; 1.11 µM): 0.387 ± 0.03
- normalised growth rate inhibition (MCF7; 3.33 µM): 0.427 ± 0.0076
- normalised growth rate inhibition (MCF7; 10 µM): 0.425 ± 0.013

SMILES: CCCS(=O)(=O)Nc1ccc(F)c(C(=O)c2c[nH]c3ncc(-c4ccc(Cl)cc4)cc23)c1F [vemurafenib]
- normalised growth rate inhibition (BT20; 0.04 µM): 0.971 ± 0.051
- normalised growth rate inhibition (BT20; 0.12 µM): 0.968 ± 0.052
- normalised growth rate inhibition (BT20; 0.37 µM): 0.964 ± 0.035
- normalised growth rate inhibition (BT20; 1.11 µM): 0.949 ± 0.057
- normalised growth rate inhibition (BT20; 3.33 µM): 0.87 ± 0.031
- normalised growth rate inhibition (BT20; 10 µM): 0.582 ± 0.032
- normalised growth rate inhibition (MDAMB231; 0.04 µM): 0.975 ± 0.042
- normalised growth rate inhibition (MDAMB231; 0.12 µM): 0.965 ± 0.03
- normalised growth rate inhibition (MDAMB231; 0.37 µM): 0.964 ± 0.025
- normalised growth rate inhibition (MDAMB231; 1.11 µM): 0.897 ± 0.061
- normalised growth rate inhibition (MDAMB231; 3.33 µM): 0.827 ± 0.064
- normalised growth rate inhibition (MDAMB231; 10 µM): 0.422 ± 0.042
- normalised growth rate inhibition (HS578T; 0.04 µM): 1.04 ± 0.014
- normalised growth rate inhibition (HS578T; 0.12 µM): 1.03 ± 0.011
- normalised growth rate inhibition (HS578T; 0.37 µM): 1.03 ± 0.038
- normalised growth rate inhibition (HS578T; 1.11 µM): 1.01 ± 0.051
- normalised growth rate inhibition (HS578T; 3.33 µM): 0.89 ± 0.075
- normalised growth rate inhibition (HS578T; 10 µM): 0.548 ± 0.033
- normalised growth rate inhibition (SKBR3; 0.04 µM): 1.05 ± 0.069
- normalised growth rate inhibition (SKBR3; 0.12 µM): 1.03 ± 0.044
- normalised growth rate inhibition (SKBR3; 0.37 µM): 1.03 ± 0.04
- normalised growth rate inhibition (SKBR3; 1.11 µM): 1.01 ± 0.042
- normalised growth rate inhibition (SKBR3; 3.33 µM): 0.951 ± 0.046
- normalised growth rate inhibition (SKBR3; 10 µM): 0.805 ± 0.032
- normalised growth rate inhibition (MCF10A; 0.04 µM): 0.9898 ± 0.0042
- normalised growth rate inhibition (MCF10A; 0.12 µM): 0.9881 ± 0.0069
- normalised growth rate inhibition (MCF10A; 0.37 µM): 0.9871 ± 0.0051
- normalised growth rate inhibition (MCF10A; 1.11 µM): 0.955 ± 0.045
- normalised growth rate inhibition (MCF10A; 3.33 µM): 0.798 ± 0.14
- normalised growth rate inhibition (MCF10A; 10 µM): 0.462 ± 0.096
- normalised growth rate inhibition (MCF7; 0.04 µM): 0.978 ± 0.017
- normalised growth rate inhibition (MCF7; 0.12 µM): 1.02 ± 0.024
- normalised growth rate inhibition (MCF7; 0.37 µM): 1.03 ± 0.015
- normalised growth rate inhibition (MCF7; 1.11 µM): 1.01 ± 0.046
- normalised growth rate inhibition (MCF7; 3.33 µM): 0.998 ± 0.022
- normalised growth rate inhibition (MCF7; 10 µM): 0.858 ± 0.086

SMILES: CC1=C(CO)C(=O)O[C@@H]([C@@H](C)[C@H]2CC[C@H]3[C@@H]4C[C@H]5O[C@]56[C@@H](O)C=CC(=O)[C@]6(C)[C@H]4CC[C@]23C)C1 [withaferin-a]
- normalised growth rate inhibition (BT20; 0.04 µM): 1.04 ± 0.038
- normalised growth rate inhibition (BT20; 0.12 µM): 0.99 ± 0.083
- normalised growth rate inhibition (BT20; 0.37 µM): 0.714 ± 0.13
- normalised growth rate inhibition (BT20; 1.11 µM): -0.105 ± 0.13
- normalised growth rate inhibition (BT20; 3.33 µM): -0.345 ± 0.065
- normalised growth rate inhibition (BT20; 10 µM): -0.283 ± 0.026
- normalised growth rate inhibition (MDAMB231; 0.04 µM): 1.04 ± 0.053
- normalised growth rate inhibition (MDAMB231; 0.12 µM): 1 ± 0.05
- normalised growth rate inhibition (MDAMB231; 0.37 µM): 0.614 ± 0.16
- normalised growth rate inhibition (MDAMB231; 1.11 µM): -0.0338 ± 0.067
- normalised growth rate inhibition (MDAMB231; 3.33 µM): -0.143 ± 0.056
- normalised growth rate inhibition (MDAMB231; 10 µM): -0.336 ± 0.097
- normalised growth rate inhibition (HS578T; 0.04 µM): 1.01 ± 0.018
- normalised growth rate inhibition (HS578T; 0.12 µM): 1.01 ± 0.02
- normalised growth rate inhibition (HS578T; 0.37 µM): 0.944 ± 0.077
- normalised growth rate inhibition (HS578T; 1.11 µM): -0.0869 ± 0.077
- normalised growth rate inhibition (HS578T; 3.33 µM): -0.085 ± 0.037
- normalised growth rate inhibition (HS578T; 10 µM): -0.287 ± 0.077
- normalised growth rate inhibition (SKBR3; 0.04 µM): 1.04 ± 0.063
- normalised growth rate inhibition (SKBR3; 0.12 µM): 0.892 ± 0.096
- normalised growth rate inhibition (SKBR3; 0.37 µM): 0.174 ± 0.15
- normalised growth rate inhibition (SKBR3; 1.11 µM): -0.104 ± 0.11
- normalised growth rate inhibition (SKBR3; 3.33 µM): -0.3 ± 0.086
- normalised growth rate inhibition (SKBR3; 10 µM): -0.278 ± 0.12
- normalised growth rate inhibition (MCF10A; 0.04 µM): 0.9993 ± 0.0071
- normalised growth rate inhibition (MCF10A; 0.12 µM): 0.984 ± 0.025
- normalised growth rate inhibition (MCF10A; 0.37 µM): 0.861 ± 0.05
- normalised growth rate inhibition (MCF10A; 1.11 µM): -0.0779 ± 0.054
- normalised growth rate inhibition (MCF10A; 3.33 µM): -0.193 ± 0.15
- normalised growth rate inhibition (MCF10A; 10 µM): -0.244 ± 0.19
- normalised growth rate inhibition (MCF7; 0.04 µM): 1.01 ± 0.055
- normalised growth rate inhibition (MCF7; 0.12 µM): 0.907 ± 0.091
- normalised growth rate inhibition (MCF7; 0.37 µM): 0.283 ± 0.09
- normalised growth rate inhibition (MCF7; 1.11 µM): 0.0882 ± 0.037
- normalised growth rate inhibition (MCF7; 3.33 µM): -0.196 ± 0.13
- normalised growth rate inhibition (MCF7; 10 µM): -0.141 ± 0.099
